In the supplement of paper PMC10307832:

Experiments:
Assay in all cases: relative viability (nuclei count vs DMSO), 5 days (fraction); higher = more cells survive
Selisistat + Dasatinib = compound: C1CC(C2=C(C1)C3=C(N2)C=CC(=C3)Cl)C(=O)N [Selisistat] + Cc1nc(Nc2ncc(C(=O)Nc3c(C)cccc3Cl)s2)cc(N2CCN(CCO)CC2)n1 [Dasatinib] (partner 0.075 µM)
Outline: (§1)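 Relative viability divides the nuclei count in treated wells by that in vehicle wells. Lung cancer cell lines were seeded in 1536-well plates, dosed by pin tool the next day, and fixed and stained after 5 days in one step with final 0.05% Triton X-100, 1% formaldehyde and 1 ug/ml Hoechst. Dosing was a single drug or a fixed anchor-drug dose plus five library-drug doses (not always all listed) in √10 steps, and values are medians of duplicate plates imaged at 4×.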

Selisistat + Lapatinib = compound: C1CC(C2=C(C1)C3=C(N2)C=CC(=C3)Cl)C(=O)N [Selisistat] + CS(=O)(=O)CCNCc1ccc(-c2ccc3ncnc(Nc4ccc(OCc5cccc(F)c5)c(Cl)c4)c3c2)o1 [Lapatinib] (partner 2 µM)
Outline: as §1

Serdemetan + Olaparib = compound: c1ccc2c(CCNc3ccc(Nc4ccncc4)cc3)c[nH]c2c1 [Serdemetan] + O=C(c1cc(Cc2n[nH]c(=O)c3ccccc23)ccc1F)N1CCN(C(=O)C2CC2)CC1 [Olaparib] (partner 8 µM)
Outline: as §1

Serdemetan + Crizotinib = compound: c1ccc2c(CCNc3ccc(Nc4ccncc4)cc3)c[nH]c2c1 [Serdemetan] + C[C@@H](Oc1cc(-c2cnn(C3CCNCC3)c2)cnc1N)c1c(Cl)ccc(F)c1Cl [Crizotinib] (partner 1 µM)
Outline: as §1

Cell Line | relative viability (Selisistat + Dasatinib; first compound 0.4 µM) | relative viability (Selisistat + Dasatinib; first compound 1.265 µM) | relative viability (Selisistat + Dasatinib; first compound 4 µM) | relative viability (Selisistat + Dasatinib; first compound 12.65 µM) | relative viability (Selisistat + Dasatinib; first compound 40 µM) | relative viability (Selisistat + Lapatinib; first compound 0.4 µM) | relative viability (Selisistat + Lapatinib; first compound 1.265 µM) | relative viability (Selisistat + Lapatinib; first compound 4 µM) | relative viability (Selisistat + Lapatinib; first compound 12.65 µM) | relative viability (Selisistat + Lapatinib; first compound 40 µM) | relative viability (Serdemetan + Olaparib; first compound 0.04 µM) | relative viability (Serdemetan + Olaparib; first compound 0.1265 µM) | relative viability (Serdemetan + Olaparib; first compound 0.4 µM) | relative viability (Serdemetan + Olaparib; first compound 1.265 µM) | relative viability (Serdemetan + Olaparib; first compound 4 µM) | relative viability (Serdemetan + Crizotinib; first compound 0.04 µM) | relative viability (Serdemetan + Crizotinib; first compound 0.1265 µM) | relative viability (Serdemetan + Crizotinib; first compound 0.4 µM) | relative viability (Serdemetan + Crizotinib; first compound 1.265 µM) | relative viability (Serdemetan + Crizotinib; first compound 4 µM)
NCI-H1651 | 0.434 | 0.378 | 0.359 | 0.348 | 0.34 | 0.785 | 0.769 | 0.749 | 0.789 | 0.939 | 0.179 | 0.165 | 0.159 | 0.131 | 0.141 | 0.82 | 0.79 | 0.793 | 0.462 | 0.356
NCI-H1666 | 0.799 | 0.763 | 0.734 | 0.594 | 0.525 | 0.751 | 0.574 | 0.437 | 0.589 | 0.472 | 0.735 | 0.701 | 0.668 | – | 0.678 | 1.01 | 0.981 | 0.907 | 0.663 | 0.836
NCI-H1734 | 0.48 | 0.469 | 0.622 | 0.502 | 0.464 | 1.03 | 1.04 | 1.17 | 1.02 | 1.16 | 0.327 | 0.183 | 0.171 | 0.114 | 0.149 | 0.61 | – | 0.196 | 0.144 | 0.155
NCI-H1755 | 0.474 | 0.476 | 0.418 | 0.419 | 0.414 | 1.12 | 1.15 | 1.01 | 1.01 | 1.13 | 0.867 | 0.769 | 0.648 | 0.493 | 0.448 | 0.83 | 0.768 | 0.767 | 0.323 | 0.428
NCI-H1792 | 0.806 | 0.805 | – | 0.677 | 0.498 | 0.917 | 0.89 | – | 0.829 | 0.926 | 0.405 | 0.336 | 0.231 | 0.0956 | 0.116 | 0.947 | 0.926 | 0.867 | 0.939 | 0.603
NCI-H1915 | 0.322 | 0.312 | 0.261 | 0.319 | 0.313 | 0.967 | 0.969 | 0.918 | 0.897 | 1.02 | 0.238 | 0.242 | 0.223 | 0.208 | 0.24 | 0.86 | 0.887 | 0.833 | 0.709 | 0.59
NCI-H1944 | 0.24 | 0.205 | – | 0.22 | 0.2 | 0.797 | 0.767 | – | 0.746 | 0.854 | 0.385 | 0.393 | 0.286 | 0.228 | 0.288 | 0.973 | 1.02 | 0.904 | – | 0.419
NCI-H1975 | 0.346 | 0.383 | 0.195 | 0.314 | 0.345 | 0.823 | 0.831 | 0.706 | 0.759 | 0.65 | 0.843 | 0.754 | 0.742 | 0.748 | 0.75 | 0.91 | 0.934 | 0.937 | 0.804 | 0.99
NCI-H1993 | 0.629 | 0.655 | 0.501 | 0.672 | 0.589 | 0.683 | 0.751 | – | 0.913 | 0.806 | 0.982 | 0.969 | 1.18 | 1.01 | 0.778 | 0.951 | 0.944 | 0.86 | – | 0.734
NCI-H2009 | 0.323 | 0.267 | 0.208 | 0.239 | 0.241 | 0.903 | 0.961 | 0.454 | 0.826 | 0.987 | 0.777 | 0.687 | 0.688 | 0.496 | 0.497 | 1 | 0.966 | 0.912 | 0.803 | 0.956
NCI-H2023 | 0.495 | 0.497 | 0.524 | 0.539 | 0.512 | 0.703 | 0.812 | 0.537 | 0.859 | 0.758 | 0.512 | 0.459 | 0.323 | 0.152 | 0.203 | 0.688 | 0.644 | 0.452 | 0.286 | 0.237
NCI-H2085 | 0.262 | 0.219 | 0.204 | 0.27 | 0.257 | 0.818 | 0.797 | 0.725 | 0.753 | 0.724 | 0.818 | 0.676 | 0.597 | 0.44 | 0.393 | 0.688 | 0.817 | 0.733 | 0.627 | 0.561
NCI-H2087 | 1.08 | 0.837 | – | 0.82 | 0.777 | 1 | 1.13 | 0.653 | 0.946 | 1.03 | 0.481 | 0.473 | 0.433 | 0.207 | 0.217 | 1.14 | 0.746 | 0.699 | 0.426 | 0.487
NCI-H2126 | 0.705 | 0.597 | 0.525 | 0.601 | 0.616 | 0.828 | 0.775 | 0.623 | 0.794 | 0.856 | 0.885 | 0.914 | 0.855 | 0.724 | 0.751 | 1.02 | 1.07 | 0.944 | 0.734 | 1
NCI-H2170 | 0.468 | 0.47 | 0.521 | 0.563 | 0.63 | 0.265 | 0.272 | 0.268 | 0.28 | 0.253 | 0.641 | 0.571 | 0.544 | 0.469 | 0.352 | 1.13 | 1.16 | 1.16 | 1.22 | 1.22
NCI-H2228 | 0.68 | 0.577 | 0.449 | 0.536 | 0.557 | 0.99 | 1.2 | 1.31 | 0.868 | 1.07 | 0.493 | 0.458 | 0.358 | 0.301 | 0.264 | 0.466 | 0.284 | 0.591 | 0.237 | 0.287
NCI-H2347 | 0.343 | 0.299 | 0.171 | 0.344 | 0.31 | 1.06 | 0.943 | 0.482 | 0.882 | 0.983 | 0.568 | 0.535 | 0.59 | 0.424 | 0.439 | 0.673 | 0.699 | 0.674 | 0.506 | 0.0688
NCI-H2405 | 0.221 | 0.189 | 0.178 | 0.204 | 0.276 | 1.01 | – | – | 1.03 | 1.09 | 0.809 | 0.829 | 0.86 | 0.795 | 0.779 | 0.81 | 0.781 | 0.818 | 0.763 | 0.608
NCI-H3122 | 0.999 | 0.736 | 0.639 | 0.842 | 0.791 | 1.01 | 1.01 | 0.772 | 1.05 | 1.1 | 0.597 | 0.614 | 0.557 | 0.407 | 0.367 | 0.292 | 0.241 | 0.28 | – | 0.237
PC-3 [JPC-3] | 0.998 | 0.976 | 0.884 | 0.975 | 0.976 | 0.439 | 0.457 | 0.398 | 0.487 | 0.417 | 1.11 | 1.08 | 0.969 | 1.09 | 1.18 | 0.947 | 0.94 | – | 1.02 | 1.03
PC-14 | 0.259 | 0.302 | 0.279 | 0.289 | 0.3 | 0.371 | 0.356 | 0.218 | 0.294 | 0.342 | 0.307 | 0.261 | – | 0.204 | 0.167 | 0.899 | 0.87 | 0.793 | 0.649 | 0.745
RERF-LC-KJ | 1.04 | 0.813 | 0.818 | 0.625 | 0.568 | 0.857 | 0.854 | 0.793 | 0.811 | 0.831 | 1.03 | 0.872 | 0.889 | 0.747 | 0.835 | 0.763 | 0.818 | 0.718 | 0.705 | 0.753
SK-LU-1 | 0.166 | 0.176 | 0.186 | 0.191 | 0.184 | 0.924 | 0.825 | 0.936 | 0.958 | 0.867 | 0.463 | 0.369 | 0.479 | 0.308 | 0.365 | 0.813 | 0.899 | 0.82 | 0.679 | 0.712
SK-MES-1 | 0.451 | 0.294 | 0.293 | 0.346 | 0.264 | 0.479 | 0.525 | 0.411 | 0.504 | 0.426 | 0.688 | 0.687 | 0.635 | 0.522 | 0.43 | 0.983 | 0.976 | 0.898 | 0.647 | 0.56
SW 1573 | 0.567 | 0.385 | 0.456 | 0.616 | 0.499 | 1.14 | 1.02 | 1.02 | 1.04 | 1.12 | 0.571 | 0.464 | 0.445 | 0.21 | 0.296 | 0.851 | 0.702 | 0.761 | 0.385 | 0.207
UMC-11 | 0.434 | 0.477 | 0.521 | 0.476 | 0.559 | 0.921 | 0.999 | 0.893 | 0.94 | 1.06 | 0.345 | 0.332 | 0.319 | 0.255 | 0.593 | 0.661 | 0.591 | 0.577 | 0.482 | 0.358
